The source of these data is publication PMC9865853, “Structural Insights Uncover the Specific Phosphoinositide Recognition by the PH1 Domain of Arap3” (International Journal of Molecular Sciences, 2023).

For this experiment, the target named is T1, Arap3-PH1 (Homo sapiens, UniProt Q8WWN8).
T1 construct: first PH domain, residues 284-385, C-terminal 6xHis tag (pET22b), expressed in E. coli BL21(DE3)
T1 sequence (Q8WWN8 284-385): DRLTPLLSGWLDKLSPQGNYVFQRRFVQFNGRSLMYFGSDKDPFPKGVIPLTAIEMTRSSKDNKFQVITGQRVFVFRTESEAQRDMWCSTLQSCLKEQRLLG
The experiment in a line: SPR (Biacore T200, CM5, protein immobilised), one-site fit. In kind it is binding. (SPR reads the build-up and loss of mass on a sensor chip optically.)

As to `CCCC(=O)OC[C@H](COP(=O)(O)O[C@@H]1[C@H](O)[C@H](O)[C@@H](OP(=O)(O)O)[C@H](OP(=O)(O)O)[C@H]1O)OC(=O)CCC` [diC4-PI(4,5)P2], the Kd was ~61.7 µM. In the case of `CCCC(=O)OC[C@H](COP(=O)(O)O[C@H]1[C@H](O)[C@@H](OP(=O)(O)O)[C@H](OP(=O)(O)O)[C@@H](OP(=O)(O)O)[C@H]1O)OC(=O)CCC` [diC4-PI(3,4,5)P3], the Kd was ~11.4 µM.

For orientation: Kd means the concentration at which binding is half-saturated.
